Literature values as cited in US7829124B2, “Use of Phyllanthus constituents for treating or preventing infections caused by hepatitis B-viruses” (priority 2001, dated 2010).

Tests used:
[1] = test system: CA^2+- and phopholipid-dependent protein kinase C (PKC) of the rat brain
[2] = test system: CA^2+-dependent protein kinase of the wheat embryo
[3] = biological target: T1, cAMP-dependent protein kinase of the rat liver (Rattus norvegicus, UniProt P27791)
T1 construct: the cAMP-dependent protein kinase of the rat liver; host or cells: rat liver

Staphylococcus aureus = conditions: 0.1 ml; extract 50 mg/ml, streptomycin 10 mg/ml
Bacillus subtilis = conditions: 0.1 ml; extract 50 mg/ml, streptomycin 10 mg/ml
HBV = conditions: chronically infected patients

| Molecule | inhibition of protein kinase C (PKC) [1] | inhibition of CA^2+-dependent protein kinase [2] | inhibition of cAMP-dependent protein kinase [3] | inhibition zone (Staphylococcus aureus) | inhibition zone (Bacillus subtilis) | cases in which the virus is eliminated from the liver (HBV) | further cases with clearly reduced number of viruses in the blood (HBV) |
| --- | --- | --- | --- | --- | --- | --- | --- |
| O=C1OC2C3OC(=O)C4=CC(=O)C5(O)Oc6c(O)c(O)cc(c6C4C5(O)O)C(=O)OC2C(OC(=O)c2cc(O)c(O)c(O)c2)OC3COC(=O)c2cc(O)c(O)c3c2C2C1=CC(=O)C(O)(O3)C2(O)O (stereo not shown) [amariin] | most effective | most effective | most effective |  |  |  |  |
| O=C1O[C@H]2[C@@H]3OC(=O)c4cc(O)c(O)c(O)c4-c4c(cc(O)c(O)c4O)C(=O)OC[C@H]2O[C@@H](OC(=O)c2cc(O)c(O)c(O)c2)[C@@H]3OC(=O)c2cc(O)c(O)c3c2[C@@H]2C1=CC(=O)[C@](O)(O3)C2(O)O [geraniin] | most effective | most effective | most effective |  |  |  |  |
| [H]/N=C(/N)N[C@H]1[C@H](O)[C@@H](O)[C@H](O[C@@H]2O[C@@H](C)[C@](O)(C=O)[C@H]2O[C@@H]2O[C@@H](CO)[C@H](O)[C@@H](O)[C@@H]2NC)[C@@H](N/C(N)=N\[H])[C@@H]1O [streptomycin] |  |  |  | 35 mm | 35 mm |  |  |
| interferon α |  |  |  |  |  | 20-30% | 30% |
| phenazine-derivative of the geraniin | most effective | most effective | most effective |  |  |  |  |
